Results on one molecule are retold here after patent US10391080B2, “Ketorolac for the treatment of cancer” (Cipla Limited, priority 2016, dated 2019).

Structures are written as SMILES. Read-outs that look alike come from different tables or passages of the source.

What all share (format): cell-based
One experiment deals with RXF 486L. Briefly: In vitro 3D assay, clonogenic assay (colony formation in semi-solid medium). The conditions noted are these: Homo sapiens, 3D colony formation, continuous exposure 8 to 13 days. Here is the method:
(§1) Ketorolac was characterized for its ability to inhibit anchorage independent growth and ex vivo colony formation of tumor cells in semi-solid medium. The compound was tested against 10 human tumor xenograft-derived cell suspensions or tumor cell lines of renal cancer.
(§2) Cell lines were routinely passaged one or twice weekly. […] The percentage of viable cells was determined in a Neubauer-hemocytometer using trypan blue exclusion.
(§3) Tumor xenografts (patient-derived, as well as cell line-derived xenografts) were passaged as subcutaneous xenografts in NMRI nu/nu mice. At a tumor volume of 400-1000 mm^3 tumor-bearing mice were sacrificed and tumors were collected under sterile conditions without delay according to the relevant Oncotest SOPs and the relevant animal welfare guidelines published by the FELASA and the GV-SOLAS. […] The percentage of viable cells was determined in a Neubauer-hemocytometer using trypan blue exclusion. Aliquots of the cells were frozen down, and stored in liquid nitrogen. On each day of an experiment, a frozen aliquot of tumor cells was thawed and used for preparation of assay plates.
(§4) The clonogenic assay was carried out in a 96 well plate format using ultra low attachment plates. […] Every plate included six untreated control wells and drug-treated groups in duplicate at 9 concentrations. […] At the time of maximum colony formation, counts were performed with an automatic image analysis system (Celllnsight NXT, Thermo Scientific). 48 hours prior to evaluation, vital colonies were stained with a sterile aqueous solution of 2-(4-iodophenyl)-3-(4-nitrophenyl)-5-phenyltetrazolium chloride (1 mg/ml, 100 μl/well).

In the next experiment the test system is RXF 1781L. Described as above. The conditions noted are these: Homo sapiens, 3D colony formation, continuous exposure 8 to 13 days. How it is done: as §1, §2, §3, §4
The test system of the next experiment is ACHN. The experiment is described as above. The conditions noted are these: Homo sapiens, 3D colony formation, continuous exposure 8 to 13 days. How it is done:
as §1, §2, §3, §4

A further experiment deals with RXF 1220L. Described as above. The conditions noted are these: Homo sapiens, 3D colony formation, continuous exposure 8 to 13 days. How it is done: as §1, §2, §3, §4
The next experiment has as its system Caki-1. The experiment is described as above. The conditions noted are these: Homo sapiens, Caki-1, 3D colony formation, continuous exposure 8 to 13 days. How it is done: as §1, §2, §3, §4
The subject of the next experiment is A-498 cells. The experiment is described as above. The conditions noted are these: Homo sapiens, A498, A-498, 3D colony formation, continuous exposure 8 to 13 days. Here is the method: as §1, §2, §3, §4
Another experiment relates to RXF 1183L. The description is as above. The conditions noted are these: Homo sapiens, 3D colony formation, continuous exposure 8 to 13 days. How it is done:
as §1, §2, §3, §4

The next experiment has as its system RXF 393L. Described as above. The conditions noted are these: Homo sapiens, 3D colony formation, continuous exposure 8 to 13 days. Here is the method: as §1, §2, §3, §4
The test system of another experiment is SN12C. Described as above. The conditions noted are these: Homo sapiens, 3D colony formation, continuous exposure 8 to 13 days. How it is done: as §1, §2, §3, §4
The next experiment relates to Par-4. Put plainly: PAR-4 activity, Western blot of cell supernatant and lysate. The conditions noted are these: normal mouse embryonic fibroblast cells, 25 μM, 18-21 h, cell supernatant, dose dependent. Here is the method: Mouse embryonic fibroblast cells were harvested from exponential phase cultures. After a 24 h recovery period to allow the cells to resume exponential growth the cells were treated with 25 μM of ketorolac followed by further 18-21 h of incubation. Induction of Par-4 was checked in the cell supernatant and cell lysate by subjecting the samples to Western blot analysis with antibodies specific for Par-4. The samples were also subjected to SDS/PAGE and Coomassie blue staining to determine albumin levels in serum from the CM as another loading control.
A general note: A western blot detects proteins with antibodies after separation by electrophoresis.

By IC50 is commonly meant the concentration needed to halve the response being measured. `O=C(c1ccccc1)c1ccc2n1CCC2C(=O)O` (racemic) [Ketorolac, (±)-5-benzoyl-2,3-dihydro-1H-pyrrolizine-1-carboxylic acid]: the IC50 in the experiment on RXF 486L (read-out: Absolute IC50) worked out at 2680 µM; with RXF 486L (read-out: Relative IC50), 2610 µM; in the experiment on RXF 1781L (read-out: Absolute IC50), 1900 µM; in the experiment on RXF 1781L (read-out: Relative IC50), 2040 µM; with ACHN (read-out: Absolute IC50), 3140 µM; in the experiment with ACHN (read-out: Relative IC50), 3250 µM. The IC50 with RXF 1220L (read-out: Absolute IC50) was 1770 µM; in the experiment on RXF 1220L (read-out: Relative IC50), 1750 µM; with Caki-1 (read-out: Absolute IC50), 3680 µM; in the experiment on Caki-1 (read-out: Relative IC50), 3750 µM; in the experiment on A-498 cells (read-out: Absolute IC50), 279 µM; in the experiment with A-498 cells (read-out: Relative IC50), 279 µM. Further, the concentration for half-maximal inhibition (IC50) with RXF 1183L (read-out: Absolute IC50) came out at 1550 µM; in the experiment with RXF 1183L (read-out: Relative IC50) it was 1490 µM; in the experiment on RXF 393L (read-out: Absolute IC50), 2830 µM; in the experiment on RXF 393L (read-out: Relative IC50), 2730 µM; in the experiment on SN12C (read-out: Absolute IC50), 2590 µM; in the experiment with SN12C (read-out: Relative IC50), 2640 µM. In the experiment on Par-4, the “Induction of Par-4 secretion” value is listed as “robust Par-4 secretion”.
